Results taken from PubChem BioAssay (NCI).
“And” between values parts separate entries of the source, which are not always exact repeats. Equal values may be shown once.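 Where inhibition never reached the appropriate level, the endpoint shown equals the highest concentration tested. Otherwise, values were interpolated linearly from a five-concentration, 48-hour dose response in 96-well plates. Abbreviation: GI50, concentration required for 50% inhibition of growth. TGI denotes the concentration required for complete inhibition of growth.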

Tests used:
Assay in all cases: NCI-60 cell line screen, 48 h
RXF 393 renal = system: RXF 393 renal
HCT-15 colon = system: HCT-15 colon
NCI-H522 lung = system: NCI-H522 lung
CAKI-1 renal = system: CAKI-1 renal
HCT-116 colon = system: HCT-116 colon
HCC-2998 colon = system: HCC-2998 colon
SNB-19 CNS = system: SNB-19 CNS
M14 melanoma = system: M14 melanoma
TK-10 renal = system: TK-10 renal
EKVX NSCLC = system: EKVX NSCLC

| Compound | GI50 (RXF 393 renal) | TGI (RXF 393 renal) | GI50 (HCT-15 colon) | TGI (HCT-15 colon) | GI50 (NCI-H522 lung) | TGI (NCI-H522 lung) | GI50 (CAKI-1 renal) | TGI (CAKI-1 renal) | GI50 (HCT-116 colon) | TGI (HCT-116 colon) | GI50 (HCC-2998 colon) | TGI (HCC-2998 colon) | GI50 (SNB-19 CNS) | TGI (SNB-19 CNS) | GI50 (M14 melanoma) | TGI (M14 melanoma) | TGI (TK-10 renal) | TGI (EKVX NSCLC) | GI50 (TK-10 renal) | GI50 (EKVX NSCLC) |
| --- | --- | --- | --- | --- | --- | --- | --- | --- | --- | --- | --- | --- | --- | --- | --- | --- | --- | --- | --- | --- |
| Cc1ncc([N+](=O)[O-])n1CCOc1ccc(C(=O)/C=C/c2ccc(C(F)(F)F)cc2)cc1 | 4.54 µM | 17.6 µM | 1.82 µM | 4.09 µM | 2.55 µM | 7.74 µM | 2 µM | 5.25 µM | 1.65 µM | 3.34 µM | 5.85 µM | 18.3 µM | 3.34 µM | 15.7 µM | 3.85 µM | 14.8 µM | – | – | – | – |
| COc1ccc(C2C(C(=O)O)=C(COC(C)=O)Oc3cc4c(cc32)OCO4)c(OC)c1 (stereo not drawn) | – | > 100 µM | – | > 100 µM | – | – | – | > 100 µM | – | > 100 µM | – | – | – | > 100 µM | – | > 100 µM | > 100 µM | > 100 µM | – | – |
| Cc1cccc(NC(=O)CSc2nnc(-c3ccc(N=Cc4ccc(Cl)cc4)cc3)o2)c1 | – | > 100 µM | – | > 100 µM | – | > 100 µM | – | – | – | > 100 µM | – | – | – | > 100 µM | – | > 100 µM | > 100 µM | > 100 µM | – | – |
| CC1(C)O[C@@H](CCl)C[C@@H](C#N)O1 | – | > 100 µM | – | – | – | > 100 µM | – | > 100 µM | – | > 100 µM | – | > 100 µM | – | > 100 µM | – | > 100 µM | > 100 µM | > 100 µM | – | – |
| NC(=O)C1C(=O)Oc2cccnc21 (stereo not drawn) | – | > 100 µM | – | > 100 µM | – | > 100 µM | – | – | – | > 100 µM | – | – | – | > 100 µM | – | > 100 µM | > 100 µM | > 100 µM | – | – |
| Cc1cn([C@H]2CN(O)C[C@@H](CO)O2)c(=O)[nH]c1=O | – | > 100 µM | – | > 100 µM | – | – | – | > 100 µM | – | > 100 µM | – | > 100 µM | – | > 100 µM | – | > 100 µM | > 100 µM | > 100 µM | – | – |
| O=C(/C=C/c1ccccn1)c1ccccc1 | 3.17 µM | 13.1 µM | 2.66 µM | 12.9 µM | 1.65 µM | 3.1 µM | 3.28 µM | 12.3 µM | 1.49 µM | 3.77 µM | 15.4 µM | 29.9 µM | 12 µM | 26.7 µM | – | – | 25.6 µM | 31.2 µM | 12.8 µM | 15.4 µM |
| c1ccc(-c2nc3ccccc3[nH]2)c(OCCCCCOc2ccccc2-c2nc3ccccc3[nH]2)c1 | – | – | 4.64 µM | 18.4 µM | 5.46 µM | 39.1 µM | 12.5 µM | 29.9 µM | 1.64 µM | 3.24 µM | 16.1 µM | 67.2 µM | 14.4 µM | 31.9 µM | 13.4 µM | 44.1 µM | 30.8 µM | 32.7 µM | 13 µM | 11.8 µM |
| O=C(Cn1ccnc1[N+](=O)[O-])NCc1ccc(F)cc1 | – | > 100 µM | – | > 100 µM | – | > 100 µM | – | > 100 µM | – | – | – | – | – | > 100 µM | – | > 100 µM | > 100 µM | > 100 µM | – | – |
| CC(=O)Nc1ccc2c(c1)[nH]c(=O)c1cc(Cl)ccc12 | – | – | – | > 100 µM | – | > 100 µM | – | 8.4 µM | – | > 100 µM | – | > 100 µM | – | > 100 µM | – | > 100 µM | 60.4 µM | > 100 µM | – | – |
| COc1cc2c(cc1OC)C(Sc1ccc(Cl)cc1)c1c(nc(N)c(C#N)c1N)O2 (stereo not drawn) | 1.39 µM | 2.77 µM | 1.19 µM | 2.66 µM | 1.29 µM | 2.64 µM | – | – | 1.96 µM | 3.46 µM | 1.72 µM | 3.25 µM | 1.47 µM | 2.86 µM | 1.63 µM | 3.1 µM | 2.75 µM | 3.02 µM | 1.43 µM | 1.57 µM |
| CCOc1ccccc1NC(=O)C1=C(C)NC(C)=C(C(=O)Nc2ccccc2OCC)C1c1ccc2c(c1)OCO2 | – | > 100 µM | – | – | – | 29.8 µM | – | > 100 µM | – | – | – | 54.9 µM | – | > 100 µM | – | 78.2 µM | > 100 µM | > 100 µM | – | – |
| N#CC(C#N)=C/C=C/c1ccccc1[N+](=O)[O-] | – | 9.53 µM | – | > 10 µM | – | > 10 µM | – | > 10 µM | – | 3.67 µM | – | > 10 µM | – | > 10 µM | – | – | > 10 µM | > 10 µM | – | – |
| Cc1cc2nc3c(C(OC4OC(CO)C(O)C(O)C4O)C(O)CO)nn(-c4ccc(F)cc4)c3nc2cc1C (stereo not drawn) | – | > 100 µM | – | > 100 µM | – | > 100 µM | – | – | – | > 100 µM | – | > 100 µM | – | > 100 µM | – | > 100 µM | > 100 µM | > 100 µM | – | – |
| CN(C)CCC(/C=C/c1ccccc1)=N\Nc1c(F)c(F)c(F)c(F)c1F | – | > 100 µM | – | > 100 µM | – | > 100 µM | – | – | – | > 100 µM | – | – | – | > 100 µM | – | > 100 µM | > 100 µM | > 100 µM | – | – |
| OCCN1CCCN(CCCN2c3ccccc3Sc3ccc(C(F)(F)F)cc32)CC1 | 2.59 µM | 11.2 µM | 2.74 µM | 10.3 µM | 3.23 µM | 14 µM | 2.3 µM | 6.26 µM | 2.1 µM | 4.49 µM | 1.81 µM | 3.33 µM | 2.84 µM | 11.7 µM | 1.97 µM | 3.9 µM | 3.58 µM | – | 1.68 µM | – |
| COc1ccc(S(=O)(=O)NNS(C)(=O)=O)cc1OC | – | > 100 µM | – | > 100 µM | – | > 100 µM | – | > 100 µM | – | – | – | > 100 µM | – | > 100 µM | – | > 100 µM | > 100 µM | > 100 µM | – | – |
| Nc1nc2c(ncn2C2OC(CO)C(O)C2O)c(=O)[nH]1 (stereo not drawn) | – | 162 µM | > 100 µM and 20.7 µM | > 100 µM and 191 µM | > 100 µM | > 100 µM and 149 µM | 55.5 µM | > 100 µM and 214 µM | > 100 µM | > 100 µM and 201 µM | 78.7 µM | > 100 µM and 245 µM | – | > 100 µM and 21.6 µM | – | – | – | > 100 µM and 146 µM | – | > 100 µM |
| CC(=O)OCCc1cc2ccccc2oc1=O | – | > 100 µM | – | > 100 µM | – | > 100 µM | – | > 100 µM | – | > 100 µM | – | > 100 µM | – | > 100 µM | – | > 100 µM | – | > 100 µM | – | – |
